Measured values published in US12390472B2 (SUZHOU SINOVENT PHARMACEUTICALS CO., LTD., priority 2018, dated 2025).

Test system: subcutaneous xenograft tumor model of human B lymphocyte Pfeiffer
Assay: In vivo efficacy in subcutaneous xenograft tumor model of human B lymphocyte Pfeiffer
Design: species or system mouse
Settings: SCID Beige mice, 100 mg/kg p.o. QD 21 days, tumor volume 21 days after administration
Procedure: Human B lymphocyte strain Pfeiffer was cultured in vitro, in a monolayer way, in a RPMI-1640 medium containing 10% fetal bovine serum, 100 U/mL penicillin and 100 μg/mL streptomycin in an incubator at 37° C./5% CO2. Conventional medium refreshment and subculturing were carried out twice a week, and cells in logarithmic growth phase were collected and used for tumor inoculation after being counted.
Female SCID Beige mice, aged 6-8 weeks and weighed 18-22 g were used in the experiment. The experiment started after 7-day adaptive feed.
Each mouse was inoculated subcutaneously with 10×10^6 Pfeiffer cells in a volume of 0.2 mL in the right side of the neck. The cells were suspended with PBS and matrigel (volume ratio 1:1). After the average tumor volume reached 130 mm^3, the mice were divided into groups with 8 mice per group for administration. The administration volume was 10 uL/g and the dose was 100 mg/kg if there's no special labeling ((p.o. administration, QD, continuous administration for 21 days).
Animal body weights were measured twice weekly and animal mortality and side effects within each group were recorded based on the number of animals in the group.
The experimental indices were to investigate whether tumor growth was inhibited or delayed or the tumor was cured. Tumor diameters were measured twice weekly using a vernier caliper. The tumor volume was calculated according to the following formula: V=0.5 a×b^2, where a and b represent the long diameter and short diameter of the tumor, respectively. The tumor growth inhibitions (TGIs) of the compounds were evaluated by T/C (%). The percentage value of T/C (%) is an index for reflecting the tumor growth inhibition, where T and C represent the average tumor volume of the administration group and the control group, respectively, at a certain day.
The tumor growth inhibition rate was calculated according to the following formula: TGI (%)=(1−(Ti−T0)/(Vi−V0))×100, where Ti is the average tumor volume of a certain administration group on a certain day, T0 is the average tumor volume of the administration group at the start of administration, Vi is the average tumor volume of the vehicle control group on a certain day (same day as Ti) and V0 is the average tumor volume of the vehicle control group at the start of administration.
Relative tumor volumes at each time point for each group were statistically analyzed and differences among groups were assessed based on the data. The statistical method used for testing was one-way ANOVA.

Question: `CCN(c1cc(O[C@H]2C[C@H](N3C[C@@H](C)O[C@@H](C)C3)C2)cc(C(=O)NCc2c(C)cc(C)[nH]c2=O)c1C)C1CCC(F)(F)CC1` [Example 45, 3-((4,4-difluorocyclohexyl)(ethyl)amino)-N-((4,6-dimethyl-2-oxo-1,2-dihydropyridin-3-yl)methyl)-5-(trans-3-(cis-2,6-dimethylmorpholinyl)cyclobutoxy)-2-methylbenzamide] was tested. Which TGI did it give?
Answer: Its TGI is 66.20%.
